Converted amounts (≈) assume the structure as drawn. “And” between values parts separate entries of the source, which are not always exact repeats. Equal values may be shown once. “Also recorded” adds a separate entry of the source. Read-outs that look alike come from different tables or passages of the source.
Columns and labels:
[1] = source not stated; cited from earlier work
[2] = biological target: T1, mouse eugenol OR (mOR-EG) (Mus musculus, UniProt Q920P2); experiment: mOR-EG/AC Ca2+ imaging: mOR-EG + Gαolf + CNGC-camp in HEK293T cells; type: cell-based; settings: for decay time 90% to 10%, AC-dependent Ca2+ response / time of peak, AC-dependent Ca2+ response / time to rise 10% to 90%, AC-dependent Ca2+ response: saturating response parameters; for normalized peak magnitude, mOR-EG/AC response: normalized to eugenol
T1 sequence (Q920P2 1-313): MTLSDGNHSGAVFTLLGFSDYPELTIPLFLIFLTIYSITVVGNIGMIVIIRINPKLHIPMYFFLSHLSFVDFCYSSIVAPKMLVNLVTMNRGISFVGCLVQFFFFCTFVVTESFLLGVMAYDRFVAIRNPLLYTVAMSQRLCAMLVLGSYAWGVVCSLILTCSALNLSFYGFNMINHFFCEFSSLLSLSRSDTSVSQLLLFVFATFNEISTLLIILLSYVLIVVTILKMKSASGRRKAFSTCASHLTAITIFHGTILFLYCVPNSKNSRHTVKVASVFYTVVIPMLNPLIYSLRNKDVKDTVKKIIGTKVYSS

[3] = pH7; source not stated; cited from earlier work
[4] = biological target: T1, mouse eugenol OR (mOR-EG); experiment: mOR-EG/PLC Ca2+ imaging: mOR-EG + Gα15 in HEK293T cells; type: cell-based; settings: for decay time 90% to 10%, PLC-dependent Ca2+ response / time of peak, PLC-dependent Ca2+ response / time to rise 10% to 90%, PLC-dependent Ca2+ response: saturating response parameters
[5] = biological target: T1, mouse eugenol OR (mOR-EG); experiment: dual read-out assay, mOR-EG/PLC and mOR-EG/AC responses compared; type: cell-based; settings: for functional bias between PLC and AC pathways (in words): pair-wise comparison of EC50 values; for AC-/PLC- mediated Ca2+ response (result in words): both read-outs, up to 1-5 mM; for potency in mOR-EG/PLC signaling in comparison to mOR-EG/AC signaling: ratio of EC50 values
[6] = system: mOR-EG; settings: incubation at least 15 min; ref [22]; cited from earlier work
[7] = biological target: T1, mouse eugenol OR (mOR-EG); type: cell-based; settings: up to 1 mM

Molecule	logP [1]	decay time 90% to 10%, AC-dependent Ca2+ response [2] [s]	time of peak, AC-dependent Ca2+ response [2] [s]	time to rise 10% to 90%, AC-dependent Ca2+ response [2] [s]	solubility [3]	decay time 90% to 10%, PLC-dependent Ca2+ response [4] [s]	time of peak, PLC-dependent Ca2+ response [4] [s]	time to rise 10% to 90%, PLC-dependent Ca2+ response [4]	functional bias between PLC and AC pathways (in words) [5]	AC-/PLC- mediated Ca2+ response (result in words) [5]	other results
C=CCc1ccc(OC)c(OC)c1 [methyl eugenol]	2.7	101.2 ± 6	92 ± 3	41.6 ± 2.2	4.3 mmol/L (≈ 766 µg/mL)	39.8 ± 2.3	19.8 ± 1.2	5.4 ± 0.6 s	activated both pathways with similar EC50 values	–	EC50 [2]: 177 ± 11 µM; EC50 [4]: 165 µM
C/C=C/c1ccc(OC)c(OC)c1 [methyl isoeugenol]	–	–	–	–	3.6/3.05 mmol/l	–	–	–	–	failed to activate any response; also recorded: did not evoke any appreciable Ca^2+ signal; also recorded: does not activate either pathway; also recorded: non agonist, antagonist	agonist activity in cAMP-dependent Cre reporter assay [6]: strong agonist; antagonism of eugenol-evoked Ca2+ response ([5]; 1mM with 100 μM eugenol, both mOR-EG/Gα15 and mOR-EG/Gαs(olf) cells): completely eliminated Ca^2+ response; also recorded: potent antagonist that inhibits eugenol activation of both the mOR-EG/PLC and mOR-EG/AC responses; response to prolonged application ([5]; data not shown): did not evoke any measurable response
COC(=O)c1c(C)cc(O)c(C)c1O [mousse cristal]	10/2.8	117.6 ± 5.3	107.3 ± 2.4	32.6 ± 1.6	–	74 ± 4	30.7 ± 1.4	14.1 ± 0.8 s and 14 ± 1 s	biased activation of the PLC pathway; also recorded: strongly activating both pathways yet with a different apparent affinity	full agonist for mOR-EG	faster Trise of mOR-EG/AC response than eugenol [2]: 30%; normalized peak magnitude, mOR-EG/AC response [2]: 1.12±0.13; potency in mOR-EG/PLC signaling in comparison to mOR-EG/AC signaling [5]: more than 2 fold
C=C(C)[C@@H]1CCC2=CC(=O)C[C@@H](C)[C@]2(C)C1 [nootkatone]	3.8	–	–	–	0.24 mmol/L (≈ 52.4 µg/mL)	–	–	–	–	failed to activate any response; also recorded: no effects	–
CCC(C)(C)C1CCC(=O)CC1 [orivone]	–	101 ± 5	94.9 ± 5.3	36.4 ± 2.6	–	47.6 ± 4.1	29.8 ± 2.3	8 ± 1 s	activated both pathways with similar EC50 values	–	–
CC(=O)CCc1ccc(O)cc1 [raspberryketone, raspberry ketone]	–	–	–	–	–	–	–	–	–	no effects	AC-/PLC- mediated Ca2+ response (result in words) ([5]; listed as raspberry ketone): failed to activate any response
COc1cc(C=O)ccc1O [vanillin]	–	101.7 ± 2.6	85.3 ± 2.9	31.4 ± 1.3	28 mmol/L (≈ 4260 µg/mL)	48 ± 2.9	18.6 ± 0.9	8.3 ± 0.5 s	activated both pathways with similar EC50 values	–	–
isoeugenol	–	104 ± 4.8	95.3 ± 4.8	36.7 ± 2.7	–	54.5 ± 2.6	37.1 ± 3.5	14.8 ± 1.6 s	biased activation of the PLC pathway	–	normalized peak magnitude, mOR-EG/AC response [2]: 0.14±0.11; slow Gαs(olf)-dependent response in dual-response cells [7]: failed to evoke noticeable Gαs(olf)-dependent Ca^2+ signal; slow Gαs(olf)-dependent response in dual-response cells ([7]; listed as Isoeugenol): not able to evoke a slow Gαs(olf)-dependent response; normalized peak magnitude, mOR-EG/PLC response ([4]; normalized to eugenol): 0.38±0.03; potency in mOR-EG/PLC signaling in comparison to mOR-EG/AC signaling [5]: ~ 8 fold

— publication PMC4188773 (Cell calcium, 2014)
